# Laboratory results: patent publication US12662451B2, “Chemical compounds and uses thereof” (GLAXOSMITHKLINE INTELLECTUAL PROPERTY (NO.4) LIMITED, priority 2023, dated 2026)
# Experiments:
# [1] = target: T1, recombinant full-length WRN protein (1-1432) (Homo sapiens, UniProt Q14191); experiment: WRN unwinding activity, fluorogenic 384-well assay (Example A); type: biochemical; conditions: WRN unwinding activity, 4 hr; Table 2; read-out: 4 hr UNW pIC50 (converted)
# T1 construct: recombinant full-length WRN protein (1-1432)
# T1 sequence (Q14191 whole entry): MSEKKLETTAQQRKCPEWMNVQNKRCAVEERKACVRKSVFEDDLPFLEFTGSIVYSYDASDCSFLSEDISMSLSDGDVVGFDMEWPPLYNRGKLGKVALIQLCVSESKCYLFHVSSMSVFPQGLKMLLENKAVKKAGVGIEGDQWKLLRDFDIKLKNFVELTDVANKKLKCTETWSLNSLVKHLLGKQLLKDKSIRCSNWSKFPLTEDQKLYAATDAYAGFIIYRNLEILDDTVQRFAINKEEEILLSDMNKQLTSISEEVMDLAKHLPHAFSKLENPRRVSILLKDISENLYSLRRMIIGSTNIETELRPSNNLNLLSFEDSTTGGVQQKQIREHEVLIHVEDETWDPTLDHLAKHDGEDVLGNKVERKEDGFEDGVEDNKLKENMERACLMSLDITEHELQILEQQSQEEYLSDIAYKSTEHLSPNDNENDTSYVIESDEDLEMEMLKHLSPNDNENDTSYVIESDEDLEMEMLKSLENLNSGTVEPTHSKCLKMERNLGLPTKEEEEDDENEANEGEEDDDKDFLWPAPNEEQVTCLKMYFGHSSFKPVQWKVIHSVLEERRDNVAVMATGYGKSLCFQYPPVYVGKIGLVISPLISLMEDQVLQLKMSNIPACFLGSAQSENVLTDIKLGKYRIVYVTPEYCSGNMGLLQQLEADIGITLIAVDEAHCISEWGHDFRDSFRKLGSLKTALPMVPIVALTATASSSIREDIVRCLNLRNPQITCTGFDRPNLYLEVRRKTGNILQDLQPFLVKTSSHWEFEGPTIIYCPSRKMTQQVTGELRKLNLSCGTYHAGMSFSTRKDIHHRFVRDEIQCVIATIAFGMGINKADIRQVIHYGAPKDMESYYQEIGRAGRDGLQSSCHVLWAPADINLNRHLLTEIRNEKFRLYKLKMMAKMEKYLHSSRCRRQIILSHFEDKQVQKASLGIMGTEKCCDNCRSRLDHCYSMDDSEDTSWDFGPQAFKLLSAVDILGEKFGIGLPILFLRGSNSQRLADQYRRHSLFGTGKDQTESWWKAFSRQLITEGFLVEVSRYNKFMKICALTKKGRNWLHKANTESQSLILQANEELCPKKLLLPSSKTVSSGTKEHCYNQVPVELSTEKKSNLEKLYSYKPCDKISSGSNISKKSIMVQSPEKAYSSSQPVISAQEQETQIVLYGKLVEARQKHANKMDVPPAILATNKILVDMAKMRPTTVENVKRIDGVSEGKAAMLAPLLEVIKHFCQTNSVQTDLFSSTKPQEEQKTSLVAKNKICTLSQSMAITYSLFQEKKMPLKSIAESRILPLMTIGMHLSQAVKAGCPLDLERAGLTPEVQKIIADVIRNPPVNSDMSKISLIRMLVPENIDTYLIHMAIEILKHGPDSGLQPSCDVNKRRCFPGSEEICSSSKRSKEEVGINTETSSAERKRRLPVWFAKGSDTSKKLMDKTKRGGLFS
# Summary of the method: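 Read-out is end-point unwinding of a fluorophore/quencher duplex (ex 525, em 598 nm) after 60 min with 200 μM ATP and 12 nM DNA (2× stocks), EDTA stop. Compound first sat 4 h with 200 pM WRN (2× stock) in pH 8.0 Tris buffer; four-parameter fit gives pIC50.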
# [2] = system: SW48 human colorectal cancer cells (MSI-H cancer cells); experiment: SW48 cell viability, CellTiter-Glo, 120 hours (Example B); conditions: Homo sapiens, SW48, 120 h, read-out: SW48 pCC50, SW48 cell viability, 120 hours incubation (converted); Table 2
# Description: SW48 human colorectal cancer cells (MSI-H cancer cells) were obtained from the American Type Culture Collection and maintained in growth medium composed of RPMI-1640 supplemented with 10% fetal bovine serum. Cells were maintained in a humidified 5% CO2 incubator at 37° C. Cell dissociation was conducted using TrypLE Select to detach cells from culture flasks. Following dissociation, cells were centrifuged briefly and resuspended in assay medium RPMI-1640+10% fetal bovine serum. Black 384-well assay plates were prepared from source plates of DMSO and compounds dissolved in DMSO prior to cell dispensation. These source plates were prepared in eleven point, 3-fold serial dilutions from 10 mM stocks stored at 4° C. Compounds and DMSO controls were dispensed into assay plates at 150 nanoliters per well from source plates using Labcyte Echo 555 or Echo 655T dispensers with Column 6 and Column 18 containing DMSO only. Cells were then seeded into prepared assay plates in 50 microliters assay medium at 250 cells per well into Columns 1 thru 17 and Columns 19-24. Assay medium without cells was added to column 18 to serve as a surrogate for 100% cell cytotoxicity. Following incubation for 120 hours in a humidified 5% CO2 incubator at 37° C., cellular ATP concentration of each well was measured and used as a surrogate of cell viability. This was performed by adding 50 microliters of CellTiter-Glo reagent to each well followed by a 10-minute incubation at room temperature. Luminescence was measured on a Synergy Neo or Synergy Neo2 multimode plate reader. Compound cytotoxic response (% C) was normalized to the robust means of column 6 (Control 1, 0% Cytotoxicity) and column 18 (Control 2, 100% Cytotoxicity) and normalized % cytotoxicity (% C) calculated. % C=100−100*((Compound−Control 2)/(Control1−Control2)). These normalized data were then used to determine a 50% cytotoxic response (CC50) using 4-parameter logistic curve model 201 in Activity Base XE:
# [formula] • where A=minimum asymptote (% cytotoxicity), B=maximum asymptote (% cytotoxicity), C=Log CC50 (pCC50), D=Hill slope, and x=[inhibitor], (M).
smiles,measurement,setting,value
"Cc1nc2cc(S(=O)(=O)N(C)c3ccc([C@@H]4C[C@H](OCC5CCOCC5)C[C@H](C(=O)Nc5ccc(C(F)(F)F)cc5F)[C@H]4C(=O)O)cc3)ccc2n1C (stereo in doubt) [Example 354, rel-(1R,2R,4R,6S)-2-((2-fluoro-4-(trifluoromethyl)phenyl)carbamoyl)-4-((tetrahydro-2H-pyran-4-yl)methoxy)-6-(4-((N,1,2-trimethyl-1H-benzo[d]imidazole)-5-sulfonamido)phenyl)cyclohexane-1-carboxylic acid]",IC50,[1],1580 nM
same,CC50,[2],20000 nM
"Cc1nc2cc(S(=O)(=O)N(C)c3ccc([C@@H]4CCC[C@H](C(=O)Nc5ccc(C(F)(F)F)cc5F)[C@H]4C(=O)O)cc3F)ccc2n1C (single isomer, unassigned) [Example 369]",IC50,[1],631 nM
same,CC50,[2],12600 nM
"Cc1nc2cc(S(=O)(=O)N(C)c3ccc([C@H]4CCC[C@@H](C(=O)Nc5ccc(C(F)(F)F)cc5F)[C@@H]4C(=O)O)cc3)ccc2n1C (racemic) [Example 81, rac-(1R,2R,6S)-2-((2-fluoro-4-(trifluoromethyl)phenyl)carbamoyl)-6-(4-((N,1,2-trimethyl-1H-benzo[d]imidazole)-5-sulfonamido)phenyl)cyclohexane-1-carboxylic acid]",IC50,[1],7.94 nM
same,CC50,[2],1260 nM
"Cc1nc2cc(S(=O)(=O)N(C)c3ccc([C@H]4C[C@@](C)(O)C[C@@H](C(=O)Nc5ccc(C(F)(F)F)cc5F)[C@@H]4C(=O)O)cc3)ccc2n1C (racemic) [Example 356, rac-(1R,2R,4R,6S)-2-((2-fluoro-4-(trifluoromethyl)phenyl)carbamoyl)-4-hydroxy-4-methyl-6-(4-((N,1,2-trimethyl-1H-benzo[d]imidazole)-5-sulfonamido)phenyl)cyclohexane-1-carboxylic acid]",IC50,[1],12.6 nM
same,CC50,[2],1260 nM
"Cc1nc2cc(S(=O)(=O)N(C)c3ccc([C@H]4C[C@@H](O)C[C@@H](C(=O)Nc5ccc(C(F)(F)F)cc5F)[C@@H]4C(=O)O)cc3)ccc2n1C (single isomer, unassigned) [Example 145]",IC50,[1],1.58 nM
same,CC50,[2],1260 nM
"Cc1nc2cc(S(=O)(=O)N(C)c3ccc([C@H]4C[C@@H](Oc5ccccc5)C[C@@H](C(=O)Nc5ccc(C(F)(F)F)cc5F)[C@@H]4C(=O)O)cc3)ccc2n1C (single isomer, unassigned) [Example 152]",IC50,[1],10 nM
same,CC50,[2],2000 nM
"Cc1nc2cc(S(=O)(=O)N(C)c3ccc([C@@H]4C[C@@H](N5CC[C@H](F)C5)C[C@H](C(=O)Nc5ccc(C(F)(F)F)cc5F)[C@H]4C(=O)O)cc3)ccc2n1C (stereo in doubt) [Example 379, rel-(1R*,2R*,4S*,6S*)-2-((2-fluoro-4-(trifluoromethyl)phenyl)carbamoyl)-4-((S)-3-fluoropyrrolidin-1-yl)-6-(4-((N,1,2-trimethyl-1H-benzo[d]imidazole)-5-sulfonamido)phenyl)cyclohexane-1-carboxylic acid]",IC50,[1],501 nM
same,CC50,[2],20000 nM
"Cc1nc2cc(S(=O)(=O)N(C)c3ccc([C@@H]4C[C@H](OCC5CC5)C[C@H](C(=O)Nc5ccc(C(F)(F)F)cc5F)[C@H]4C(=O)O)cc3)ccc2n1C (stereo in doubt) [Example 313, rel-(1R,2R,4R,6S)-4-(cyclopropylmethoxy)-2-((2-fluoro-4-(trifluoromethyl)phenyl)carbamoyl)-6-(4-((N,1,2-trimethyl-1H-benzo[d]imidazole)-5-sulfonamido)phenyl)cyclohexane-1-carboxylic acid]",IC50,[1],251 nM
same,CC50,[2],20000 nM
"CN(c1ccc([C@H]2CCC[C@@H](C(=O)Nc3ccc(C(F)(F)F)cc3F)[C@@H]2C(=O)O)cc1)S(=O)(=O)c1ccc(Br)c(O)c1 [Example 274, (1R,2S,6R)-2-(4-((4-bromo-3-hydroxy-N-methylphenyl)sulfonamido)phenyl)-6-((2-fluoro-4-(trifluoromethyl)phenyl)carbamoyl)cyclohexane-1-carboxylic acid]",IC50,[1],15.8 nM
same,CC50,[2],15800 nM
"Cc1nc2cc(S(=O)(=O)N(C)c3ccc([C@@H]4C[C@@H](N5CC[C@@H](F)C5)C[C@H](C(=O)Nc5ccc(C(F)(F)F)cc5F)[C@H]4C(=O)O)cc3)ccc2n1C (stereo in doubt) [Example 384, rel-(1R*,2R*,4S*,6S*)-2-((2-fluoro-4-(trifluoromethyl)phenyl)carbamoyl)-4-((R)-3-fluoropyrrolidin-1-yl)-6-(4-((N,1,2-trimethyl-1H-benzo[d]imidazole)-5-sulfonamido)phenyl)cyclohexane-1-carboxylic acid]",IC50,[1],398 nM
same,CC50,[2],25100 nM
"CCO[C@@H]1C[C@H](COc2ccc(C(F)(F)F)cc2)[C@@H](C(=O)O)[C@H](c2ccc(N(C)S(=O)(=O)c3ccc4c(c3)nc(C)n4C)cc2)C1 (single isomer, unassigned) [Example 220]",IC50,[1],316 nM
same,CC50,[2],15800 nM
"CN1CCc2c(cccc2S(=O)(=O)N(C)c2ccc([C@H]3CCC[C@@H](C(=O)Nc4ccc(C(F)(F)F)cc4F)[C@@H]3C(=O)O)cc2)C1 [Example 114, (1R,2S,6R)-2-(4-((N,2-dimethyl-1,2,3,4-tetrahydroisoquinoline)-5-sulfonamido)phenyl)-6-((2-fluoro-4-(trifluoromethyl)phenyl)carbamoyl)cyclohexane-1-carboxylic acid]",IC50,[1],7.94 nM
same,CC50,[2],2510 nM
"CN(c1ccc([C@H]2CCC[C@@H](C(=O)Nc3ccc(C(F)(F)F)cc3F)[C@@H]2C(=O)O)cc1)S(=O)(=O)c1ccc2occc2c1 [Example 93, (1R,2R,6S)-2-((2-fluoro-4-(trifluoromethyl)phenyl)carbamoyl)-6-(4-(N-methylbenzofuran-5-sulfonamido)phenyl)cyclohexane-1-carboxylic acid]",IC50,[1],2.51 nM
same,CC50,[2],2510 nM
"O=C(O)[C@@H]1[C@@H](c2ccc(-c3ccccc3)cc2)CCC[C@H]1C(=O)Nc1ccc(C(F)(F)F)cc1F [Example 11, (1R,2S,6R)-2-([1,1′-biphenyl]-4-yl)-6-((2-fluoro-4-(trifluoromethyl)phenyl)carbamoyl)cyclohexane-1-carboxylic acid]",IC50,[1],158 nM
same,CC50,[2],15800 nM
"Cc1nc2cc(S(=O)(=O)N(C)c3ccc([C@H]4C[C@@H](OCC5COC5)C[C@@H](C(=O)Nc5ccc(C(F)(F)F)cc5F)[C@@H]4C(=O)O)cc3)ccc2n1C (relative stereo) [Example 282, rel-(1R,2R,4R,6S)-2-((2-fluoro-4-(trifluoromethyl)phenyl)carbamoyl)-4-(oxetan-3-ylmethoxy)-6-(4-((N,1,2-trimethyl-1H-benzo[d]imidazole)-5-sulfonamido)phenyl)cyclohexane-1-carboxylic acid]",IC50,[1],1.58 nM
same,CC50,[2],63.1 nM
"Cc1nc2cc(S(=O)(=O)N(C)c3ccc([C@@H]4CC[C@H](C)[C@H](C(=O)Nc5ccc(C(F)(F)F)cc5F)[C@H]4C(=O)O)cc3)ccc2n1C (single isomer, unassigned) [Example 236]",IC50,[1],631 nM
same,CC50,[2],7940 nM
O=C(O)[C@@H]1[C@@H](c2ccc(-c3ccc(F)nn3)cc2)CCC[C@H]1C(=O)Nc1ccc(C(F)(F)F)cc1F [Example 37],IC50,[1],2 nM
same,CC50,[2],2510 nM
"O=C(O)[C@@H]1[C@@H](c2ccc(-c3cncc(F)c3)cc2)CCC[C@H]1C(=O)Nc1ccc(C(F)(F)F)cc1F [Example 27, (1R,2R,6S)-2-((2-fluoro-4-(trifluoromethyl)phenyl)carbamoyl)-6-(4-(5-fluoropyridin-3-yl)phenyl)cyclohexane-1-carboxylic acid]",IC50,[1],12.6 nM
same,CC50,[2],3980 nM
